{"source": "patent US8188149B2", "about": "“Use of R(+)-N-propargy1-1-aminoindan to treat or prevent hearing loss” (Teva Pharmaceutical Industries, Ltd., priority 2007, dated 2012)", "key": {"[1]": {"tested_on": "dopamine release from the guinea pig cochlea preparation", "method": "The bulla tympani of a male guinea pig (weighing 150-350 g) was opened. The bony capsule of the cochlea was removed under stereomicroscopic guidance and the stria vascularis was stripped and the cochlea was fractured at the basis of the modiolus. The preparation contained the ganglion spirale, the afferent auditory fibers, the axons and axon terminals of the efferent bundles and both the inner and outer hair cells. All experiments were carried out in a perilimph-like solution, which contained […], 3.5 mM KCl, 1 mM CaCl2, 1 mM MgCl2, 2.75 mM HEPES and 2.25 mM Tris-OH at the temperature of 37° C. and pH 7.4. The osmolality was set by D-glucose and continuously saturated by 100% O2.\nThe cochleae were incubated with 0.2 μM [3H]dopamine (Amersham, UK, spec. act.: 31.0 Ci/mmol, 6 μCi in 1 ml) for 35 min. Each cochlea was then placed in a microvolume plexi chamber and superfused at 3 ml/min with perilymph-like solution. After 1 hour pre-perfusion the outflow was collected into 3 min-fractions. The released activity was determined by assaying […] of each sample with liquid scintillation spectrometry (Packard Tri-Carb 1900TR). After collecting samples for 57 minutes (19 fractions) each cochlea was transferred from the microchambers to 500 μl of 10% trichloroacetic acid for one day and 100 μl was assayed for tissue radioactivity. […] Electrical field stimulation was applied for one fraction period (3 min, 360 pulses) at 60 V, 2 Hz and 0.5 ms duration at the 3rd and 13th fractions. The pulses were delivered by a Grass S88 stimulator (West Warwick, USA) through platinum electrodes at the top and bottom of the tissue chamber.\nTo best describe the release of dopamine during one collecting period, the fractional release (FR) of the tritium-outflow was determined as the percentage of total radioactivity present in the tissue at the time of sample collection. The fractional release evoked by field stimulations (S1 and S2) was calculated by the area-under-the-curve, i.e., by subtracting the mean of the basal release from the total fractional release during the electrical stimulation (Halmos G, Gáborján A, Lendvai B, Répássy G, Z Szabó L, Vizi E S, (2000) Veratridine-evoked release of dopamine from guinea pig isolated cochlea. Hear Res 144: 89-96, Halmos G, Lendvai B, Gáborján A, Baranyi M, Z Szabó L, Csokonai Vitéz L, (2002) Simultaneous measurement of glutamate and dopamine release from isolated guinea pig cochlea. Neurochem Int 40: 243-248). The effects of drugs on the field stimulation-evoked [^3H]dopamine release were expressed by the calculated ratio of FRS2 over FRS1, in the presence and in the absence of the drug, respectively. The effect of drugs on the resting outflow of tritium was determined as the ratio of the sum of the two highest consecutive resting FR values in the presence of the drug and before the drug reached the cochleae (FRR2/FRR1). Data are expressed as the means±S.E.M. ANOVA was used for statistical analysis. Tukey post-hoc test was applied to determine the significance of pair wise comparisons."}, "[2]": {"tested_on": "neomycin-induced hearing loss", "conditions": "mice", "method": "Left ears were left for vehicle control (NaCl injection). […] Click stimulations to the ear including various frequencies were used to evoke the auditory response in the brainstem that was measured by multiple electrodes placed on the head of the animal."}, "[3]": {"tested_on": "neomycin-induced hearing loss", "conditions": "guinea pigs", "method": "Guinea pigs weighing 250-300 g were used in all experiments. All interventions (including ABR measurements and intratympanic treatments) are performed under general anesthesia using i.p. injection of a cocktail of Ketamine and Xylazine.\nA loudspeaker is placed in each ear and the ABR responses were detected by four surface electrodes. These electrodes are placed two in the mastoid region and one in vertex as positive and fourth electrode was placed on forehead as the ground electrode. Calibrated acoustic signals are obtained to evoke brainstem response. The visual detection threshold is determined by decrement sound pressure in 5 dB steps. The evoked responses are then filtered and averaged with 500 sweeps using a signal processor. All ABR tests are performed bilaterally and baseline Peak Equivalent Sound Pressure Levels (PESPLs) are obtained in terms of decibel (dB). All animals undergo baseline hearing test (ABR) before any kind of treatment in order to rule out previous hearing loss. Control ABR threshold measurements are compared to pretreatment values. Auditory threshold shift is subjected to statistical analysis, statistical significance is determined.\nA fine needle is used for myringotomy and drugs are delivered through the same needle. The whole middle ear is filled until the fluid can be seen in the external auditory canal. […] Concentration is calculated using this volume. […]"}}, "note": "Read-outs that look alike come from different tables or passages of the source."}
{"smiles": "C#CCN[C@@H]1CCc2ccccc21", "note": "[Rasagiline, R(+)-N-propargyl-1-aminoindan]", "values": [{"measurement": "field stimulation-evoked dopamine release (FRS2/FRS1)", "setting": "[1]; 100 μM Rasagiline", "result": "increase was significant"}, {"measurement": "evoked dopamine release, all timing groups vs control", "setting": "[1]; 100 μM, 3-21 min perfusion", "result": "significant enhancement"}, {"measurement": "resting release of dopamine (FRR2/FRR1)", "setting": "[1]; 100 μM, longest duration, 21 minutes prior to stimulation", "result": "failed to induce significant differences"}, {"measurement": "field stimulation-evoked dopamine release (FRS2/FRS1)", "setting": "[1]; 300 μM Rasagiline", "result": "increase was significant"}, {"measurement": "effect on dopamine release, concentration dependence", "setting": "[1]; 1-300 μM, FIG. 2", "result": "concentration dependent"}, {"measurement": "cochlear DA release", "setting": "[1]; higher doses (of 1, 10, 100, 300 μM), added 15 min prior to second field stimulation", "result": "elevate"}, {"measurement": "cochlear dopamine release", "setting": "[1]; low concentration (of 1, 10, 100, 300 μM), added 15 min prior to second field stimulation", "result": "did not change"}, {"measurement": "hearing threshold compared to threshold prior to neomycine treatment", "setting": "[2]; 0.5 mg Rasagiline intratympanically together with neomycine", "result": "remained unchanged"}, {"measurement": "protection against ototoxic effect of neomycine", "setting": "[2]; intraperitoneally 50 mg/kg daily, day of neomycine treatment and next three days", "result": "could not prevent"}, {"measurement": "hearing threshold compared to threshold prior to neomycine treatment", "setting": "[3]; Rasagiline intratympanically together with neomycine", "result": "remains unchanged"}, {"measurement": "protection against ototoxic effect of neomycine", "setting": "[3]; intraperitoneally on day of neomycine treatment and next three days", "result": "can not prevent"}]}
